From US8476439B2, “Pyridine classical cannabinoid compounds and related methods of use” (priority 2008, dated 2013) come the findings set out here.

For orientation: EC50 means the concentration giving half of the maximal effect.

This test deals with glioblastoma brain cancer cell line LN-229. Briefly: Cytotoxicity assay (CCK8 viability). The format is cell-based. The settings on record: Homo sapiens, cytotoxicity against LN-229, 18 hours incubation, 1% FBS media. The method, then: Cytoxocity assay: Cells were seeded on a 96 well polystyrene plate in full serum media at a density of 75,000 cells per milliliter, 100 μL per well. Plates were incubated at 37° C. and 5% CO2 for 24 hours to allow cell attachment. Drug solutions were prepared in DMSO at 100× concentration and mixed 1:100 in 1% FBS media to yield the desired concentration. Drug-media mixtures were vortexed immediately prior to administration to cells. Full serum media was removed and replaced with drug-media mixtures and incubated for 18 hours. 10 μL of Cell Counting Kit 8 (CCK8, Dojindo# CK04-11) was added to each well to colormetrically assess viability. After 2-4 hours of incubation with the CCK8 dye, absorbance was read at 450 nm by a BioTek Synergy 2 plate reader.
The cytotoxicity of selected compounds against the glioblastoma brain cancer cell line LN-229 is depicted in Table 1.

`CCCCCCC(C)(C)c1cc2c(c(O)n1)[C@@H]1C[C@H](C)CC[C@@H]1C(C)(C)O2` [Compound 6b, (6aS,9R,10aR)-6,6,9-trimethyl-3-(2-methyloctan-2-yl)-6a,7,8,9,10,10a-hexahydro-6H-isochromeno[4,3-c]pyridin-1-ol]: the EC50 was determined as 2.43 µM.

`CCCCCCC(C)(C)c1cc2c(c(O)n1)[C@H]1C[C@@H](C)CC[C@H]1C(C)(C)O2` [Compound 6c, (6aR, 9S, 10aS)-6,6,9-trimethyl-3-(2-methyloctan-2-yl)-6a,7,8,9,10,10a-hexahydro-6H-isochromeno[4,3-c]pyridin-1-ol]: the EC50 was determined as 1.83 µM.
